Source: ChEMBL document CHEMBL2157860, “Optimization of a potent class of arylamide colony-stimulating factor-1 receptor inhibitors leading to anti-inflammatory clinical candidate 4-cyano-N-[2-(1-cyclohexen-1-yl)-4-[1-[(dimethylamino)acetyl]-4-piperidinyl]phenyl]-1H-imidazole-2-carboxamide (JNJ-28312141)” (J Med Chem, 2011)
In brackets after ≈: the same amount, converted by molar mass.

Experiments:
[1] = Metabolic stability in mouse liver microsomes assessed as compound remaining after 10 mins; format: ADME, Microsome; settings: read-out: Stability
[2] = Cmax in CD1 mouse at 5 mg/kg, po; format: ADME, organism-based; parameters: dose 5 mg/kg, route oral; settings: in vivo
[3] = AUClast in CD1 mouse at 5 mg/kg, po; format: ADME, organism-based; parameters: time 0 - last, dose 5 mg/kg, route oral; settings: plasma
[4] = Metabolic stability in human liver microsomes assessed as compound remaining after 10 mins; format: ADME, Microsome; settings: read-out: Stability
[5] = Solubility of the compound in PBS; format: physicochemical
[6] = (§1) Half life in CD1 mouse at 0.5 mg/kg, iv; format: ADME, organism-based; parameters: dose 0.5 mg/kg, route intravenous; settings: CD1, mouse, in vivo
[7] = (§2) Apparent volume of distribution in CD1 mouse at 0.5 mg/kg, iv; format: ADME, organism-based; parameters: dose 0.5 mg/kg, route intravenous; settings: CD1, mouse, in vivo, read-out: Vz
[8] = Clearance in CD1 mouse at 0.5 mg/kg, iv; format: ADME, organism-based; parameters: dose 0.5 mg/kg, route intravenous; settings: in vivo
[9] = Half life in CD1 mouse at 5 mg/kg, po; format: ADME, organism-based; parameters: dose 5 mg/kg, route oral; settings: in vivo
[10] = Oral bioavailability in CD1 mouse at 5 mg/kg; format: ADME, organism-based; settings: in vivo
[11] = Tmax in CD1 mouse at 5 mg/kg, po; format: ADME, organism-based; parameters: dose 5 mg/kg, route oral; settings: in vivo
[12] = Drug uptake in CD1 mouse at 5 mg/kg, po after 4 hrs; format: ADME, organism-based; parameters: dose 5 mg/kg, route oral; settings: in vivo, read-out: Drug uptake
[13] = tested on: Mus musculus; assay: (§3) Drug uptake in CD1 mouse at 5 mg/kg, po after 8 hrs; format: ADME, organism-based; parameters: dose 5 mg/kg, route oral; settings: mouse, in vivo, 8 h, BLD = below limit of detection
[14] = tested on: Liver; assay: Metabolic stability in mouse liver microsomes assessed as glutathione conjugation at 20 to 40 uM after 1 hr by LC/MS analysis; format: ADME, Microsome
[15] = tested on: Mus musculus; assay: as §1; format: ADME, organism-based; parameters: dose 0.5 mg/kg, route intravenous; settings: mouse, in vivo
[16] = tested on: Mus musculus; assay: as §2; format: ADME, organism-based; parameters: dose 0.5 mg/kg, route intravenous; settings: mouse, in vivo
[17] = as §3; format: ADME, organism-based; parameters: dose 5 mg/kg, route oral; settings: CD1, mouse, in vivo, read-out: Drug uptake

remaining at 10 min [1]	Cmax [2]	AUC(0-t) [3]	remaining at 10 min [4]	solubility [5]	half-life [6]	Vd [7]	clearance [8]	half-life [9]	bioavailability [10]	SMILES	further results
81%	296 ng/mL	1020 ng·h/mL	87%	37.3 µM (≈ 17.2 µg/mL)	1.36 h	7.11 L/kg	60.6 mL/min/kg	2.33 h	83%	CN(C)CC(=O)N1CCC(c2ccc(NC(=O)c3nc(C#N)c[nH]3)c(C3=CCCCC3)c2)CC1	
96%	50 ng/mL	95.2 ng·h/mL	100%	38.8 µM	7.16 h	32 L/kg	51.7 mL/min/kg	2 h	12%	N#Cc1c[nH]c(C(=O)Nc2ccc(C3CCNCC3)cc2C2=CCCCC2)n1.O=C(O)C(F)(F)F	Tmax [11]: 0.25 h; concentration at 4 h [12]: 7 ng/mL; Drug uptake [13]: BLD; Stability [14]: Stable
93%			100%	11.8 µM (≈ 5.06 µg/mL)						N#CCCN1CCC(c2ccc(NC(=O)c3nc(C#N)c[nH]3)c(C3=CCCCC3)c2)CC1	
89%			100%	> 40 µM						N#Cc1c[nH]c(C(=O)Nc2ccc(C3CCN(CCO)CC3)cc2C2=CCCCC2)n1	
94%			100%							N#Cc1c[nH]c(C(=O)Nc2ccc(C3CCN(C(CO)CO)CC3)cc2C2=CCCCC2)n1	
98%	866 ng/mL	2130 ng·h/mL	94%	4.2 µM (≈ 2.02 µg/mL)	1.44 h	3.84 L/kg	30.7 mL/min/kg	1.55 h	88%	CS(=O)(=O)CCN1CCC(c2ccc(NC(=O)c3nc(C#N)c[nH]3)c(C3=CCCCC3)c2)CC1	
79%	55 ng/mL	141 ng·h/mL	81%	28.6 µM (≈ 12.4 µg/mL)	1.39 h	6.43 L/kg	53.3 mL/min/kg	0.88 h	9.8%	N#Cc1c[nH]c(C(=O)Nc2ccc(C3CCN(CC(N)=O)CC3)cc2C2=CCCCC2)n1	
70%			98%							N#Cc1c[nH]c(C(=O)Nc2ccc(C3CCN(CC(=O)O)CC3)cc2C2=CCCCC2)n1	
100%			89%							N#Cc1c[nH]c(C(=O)Nc2ccc(C3CCN(C(=O)[C@H](O)CO)CC3)cc2C2=CCCCC2)n1	
79%			67%							N#Cc1c[nH]c(C(=O)Nc2ccc(C3CCN(C(=O)CNCCO)CC3)cc2C2=CCCCC2)n1	
60%			69%							CN(CCO)CC(=O)N1CCC(c2ccc(NC(=O)c3nc(C#N)c[nH]3)c(C3=CCCCC3)c2)CC1	
86%	24 ng/mL	125 ng·h/mL	100%	0.91 µM (≈ 0.451 µg/mL)	1.2 h	1.58 L/kg	23.9 mL/min/kg	1.55 h	2.3%	CS(=O)(=O)CC(=O)N1CCC(c2ccc(NC(=O)c3nc(C#N)c[nH]3)c(C3=CCCCC3)c2)CC1	
100%			89%							N#Cc1c[nH]c(C(=O)Nc2ccc(C3CCN(C(=O)Cc4c[nH]cn4)CC3)cc2C2=CCCCC2)n1	
93%			94%							CC(C)(N)C(=O)N1CCC(c2ccc(NC(=O)c3nc(C#N)c[nH]3)c(C3=CCCCC3)c2)CC1	
61%	24 ng/mL	129 ng·h/mL	80%	8.2 µM (≈ 3.79 µg/mL)	2.41 h	10.3 L/kg	49.2 mL/min/kg	1.63 h	9.3%	N#Cc1c[nH]c(C(=O)Nc2ccc(C3CCN(C(=O)NCCO)CC3)cc2C2=CCCCC2)n1	
70%			78%							N#Cc1c[nH]c(C(=O)Nc2ccc(C3CCN(C(N)=O)CC3)cc2C2=CCCCC2)n1	
86%	209 ng/mL	454 ng·h/mL	95%	26.1 µM (≈ 10.9 µg/mL)	1.2 h	2.8 L/kg	27 mL/min/kg	1.88 h	15%	CC(=O)N1CCC(c2ccc(NC(=O)c3nc(C#N)c[nH]3)c(C3=CCCCC3)c2)CC1	Tmax [11]: 0.5 h; concentration at 4 h [12]: 54 ng/mL; concentration at 8 h [17]: 9 ng/mL; Stability [14]: Stable

More lines, now with the values behind:

SMILES	remaining at 10 min [1]	Cmax [2]	AUC(0-t) [3]	remaining at 10 min [4]	solubility [5]	half-life [6]	Vd [7]	clearance [8]	half-life [9]	bioavailability [10]	further results
N#Cc1c[nH]c(C(=O)Nc2ccc(C3CCN(c4ccccn4)CC3)cc2C2=CCCCC2)n1	77%			77%							
N#Cc1c[nH]c(C(=O)Nc2ccc(C3CCN(Cc4ccccn4)CC3)cc2C2=CCCCC2)n1	79%			75%							
N#Cc1c[nH]c(C(=O)Nc2ccc(C3CCN(CCN4CCOCC4)CC3)cc2C2=CCCCC2)n1	96%	461 ng/mL	1550 ng·h/mL	77%	25.9 µM (≈ 12.7 µg/mL)				2.37 h	101%	t1/2 [15]: 0.23 h; Vz [16]: 8.99 L/kg
N#Cc1c[nH]c(C(=O)Nc2ccc(C3CCN(C(=O)c4cccnc4)CC3)cc2C2=CCCCC2)n1	66%			56%							
N#Cc1c[nH]c(C(=O)Nc2ccc(C3CCN(C(=O)c4ccc[n+]([O-])c4)CC3)cc2C2=CCCCC2)n1	89%			100%							
N#Cc1c[nH]c(C(=O)Nc2ccc(C3CCN(C(=O)c4cc[n+]([O-])cc4)CC3)cc2C2=CCCCC2)n1	92%			100%							
Cn1cnc(CC(=O)N2CCC(c3ccc(NC(=O)c4nc(C#N)c[nH]4)c(C4=CCCCC4)c3)CC2)c1	90%	81 ng/mL	101 ng·h/mL	82%	36.7 µM (≈ 18.3 µg/mL)	0.54 h	3.85 L/kg	81.8 mL/min/kg	0.4 h	13%	
N#Cc1c[nH]c(C(=O)Nc2ccc(C3CCN(C(=O)Cc4ccccn4)CC3)cc2C2=CCCCC2)n1	37%			34%	1.6 µM (≈ 0.791 µg/mL)						
N#Cc1c[nH]c(C(=O)Nc2ccc(C3CCN(C(=O)Cc4cccnc4)CC3)cc2C2=CCCCC2)n1	21%			28%	10.4 µM (≈ 5.14 µg/mL)						
N#Cc1c[nH]c(C(=O)Nc2ccc(C3CCN(C(=O)Cc4ccncc4)CC3)cc2C2=CCCCC2)n1	24%	118 ng/mL	68 ng·h/mL	11%	0.39 µM (≈ 0.193 µg/mL)	0.41 h	7.27 L/kg	205 mL/min/kg	0.23 h	18%	
N#Cc1c[nH]c(C(=O)Nc2ccc(C3CCN(C(=O)CCN4CCOCC4)CC3)cc2C2=CCCCC2)n1	23%			57%							
N#Cc1c[nH]c(C(=O)Nc2ccc(C3CCN(C(=O)CN4CCOCC4)CC3)cc2C2=CCCCC2)n1	23%			66%							
CC1CCN(c2cc(N3CCN(C)CC3)ccc2NC(=O)c2ccc(C#N)o2)CC1		285 ng/mL	1160 ng·h/mL			3 h	12.3 L/kg	46 mL/min/kg	3.1 h	75%	Tmax [11]: 0.5 h; concentration at 4 h [12]: 183 ng/mL; concentration at 8 h [17]: 64 ng/mL
